Drawing on the METLIN SMRT retention time set (Domingo-Almenara et al. 2019), this text covers RP-LC retention time for 60 molecules.

A short description of the series: gradient 5% acetonitrile 3 min, to 50% in 2 min, to 85% in 15 min, held 3 min, 100 µL/min. The conditions noted are these: column: Zorbax Extend-C18 2.1 x 50 mm; eluents: water / acetonitrile, 0.1% formic acid. In outline: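 The system's dead and dwell volumes were 40 μL and 900 μL, with a Zorbax Extend-C18 column (2.1 × 50 mm, 1.8 μm) run at 100 μL/min in water and acetonitrile containing 0.1% formic acid each. Pure standards were analyzed in mixtures of ~100 molecules by HPLC–quadrupole time-of-flight mass spectrometry in positive and negative ionization mode. Retention time was assigned from computationally picked, manually inspected adduct peaks.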
Regarding `Cc1ccc(S(=O)(=O)CC(=O)Nc2nc(-c3ccc4c(c3)OCCO4)cs2)cc1`, the RP-LC retention time amounted to 935 s.

The molecule `COc1cccc(CNS(=O)(=O)c2ccc3c(c2)C(=O)N(C)c2ncccc2O3)c1` gave an RP-LC retention time of 933 s.

With `CC(C)c1ccc(C(=O)N2CCc3c(c(-c4nc(C5CC5)no4)nn3C)C2)cc1`, the RP-LC retention time was 971 s.

Turning to `COCCNC(=O)c1ccc2c(c1)N(Cc1ccc(F)cc1)C(=O)CO2`, the RP-LC retention time was determined as 717 s.

On to `CCn1ccc(C(=O)NCc2c(-c3ccccc3)nc3sc(C)nn23)n1`, for which the RP-LC retention time amounted to 743 s.

`CCOc1ccc(-c2noc(-c3nc(C)no3)n2)cc1` showed an RP-LC retention time of 986 s.

`CCCN(CC1CCOC1)C(=O)Nc1c(C)cccc1C` (stereo not given) came in with an RP-LC retention time of 791 s.

Molecule `CN(Cc1ccccc1)C(=O)C1(c2ccc(NC(=O)C3CC3)cc2)CCCCC1` came in with an RP-LC retention time of 1060 s.

`CC(C)(C)C(=O)N1CCCC(C(=O)Nc2sc3c(c2C(N)=O)CCCC3)C1` (stereo not given) had an RP-LC retention time of 861 s.

Consider `COc1cc(-c2nnc(-c3ccc(C)c(S(=O)(=O)N4CCCCC4)c3)o2)cc(OC)c1OC`, for which the RP-LC retention time stood at 1090 s.

`O=C(CSc1ccc(F)cc1)NCC1(CO)CC1` gave an RP-LC retention time of 629 s.

In the case of `CN(C)S(=O)(=O)c1ccc(C(=O)NCc2ccsc2)cc1`, the RP-LC retention time was determined as 730 s.

`O=C(Nc1c(F)cccc1F)N1CCc2[nH]cnc2C1c1ccccn1` (stereo not given) had an RP-LC retention time of 582 s.

In turn, `CCOC(=O)C1CCN(C(=O)C2COC3(CCCCC3)N2C(=O)c2cccc(Cl)c2)CC1` (stereo not given) gave an RP-LC retention time of 958 s.

The molecule `CCN(CC)C(=O)c1c(C)sc2ccn(Cc3ccc(F)cc3)c(=O)c12` came in with an RP-LC retention time of 828 s.

As for `Cc1cc(C)c2c(-n3cccc3)nn(CC(=O)Nc3ccc(C(C)C)cc3)c2n1`, the RP-LC retention time came to 1160 s.

`COc1ccc(-c2nnc3n2N=C(c2ccc([N+](=O)[O-])cc2)CS3)cc1OC` came in with an RP-LC retention time of 723 s.

The molecule `CCOC(=O)c1cnc2nc(C)ccc2c1Nc1cccc(Br)c1` gave an RP-LC retention time of 756 s.

As to `CNC(=O)c1cc(C)nc2ccc(C(C)C)cc12`, the RP-LC retention time turned out to be 596 s.

`Cc1ccc(-c2noc(CCN3CCN(C(C)C)CC3)n2)cc1` displayed an RP-LC retention time of 640 s.

In the case of `COc1cnc(NS(=O)(=O)c2ccc(N)cc2)nc1`, the RP-LC retention time came to 675 s.

On to `O=C(NCCCc1ccccc1)C1CCCN(c2nc3ccsc3c(=O)n2-c2ccc(F)cc2)C1` (stereo not given), for which the RP-LC retention time came out at 951 s.

`CCc1noc2nc(C)n(CC(=O)NCc3ccccc3OC)c(=O)c12` came in with an RP-LC retention time of 832 s.

Turning to `CCC(CN1CCOCC1)NC(=O)C1CCN(c2ccc(-c3cccs3)nn2)CC1` (stereo not given), the RP-LC retention time was found to be 571 s.

Turning to `COCC1CN(C2CCC2)CC12CCN(C(=O)c1cccs1)CC2` (stereo not given), the RP-LC retention time is 602 s.

Molecule `CCOc1ccc(NC(=O)N2CCC3(C2)C(=O)Nc2ccc(OC)cc23)cc1` (stereo not given) came in with an RP-LC retention time of 731 s.

Take `COc1cccc2sc(NC(=O)c3coc4ccccc4c3=O)nc12`: the RP-LC retention time came to 921 s.

`CC1CCN(S(=O)(=O)c2cc(-c3ccc(N4CCCC(C)C4)nn3)cs2)CC1` (stereo not given) came in with an RP-LC retention time of 915 s.

In turn, `O=C(Cn1nc2c3cc(-c4ccccc4)nn3ccn2c1=O)Nc1ccc(Br)cc1` gave an RP-LC retention time of 947 s.

For the molecule `Cc1nc(-c2csc(S(=O)(=O)N3CCCC(C(=O)NCc4ccccc4C)C3)c2)no1` (stereo not given), the RP-LC retention time is 983 s.

In turn, `Cc1nc2cc(N3CC(C(=O)Nc4ccc(C)c(Cl)c4)CC3=O)ccc2o1` (stereo not given) returned an RP-LC retention time of 819 s.

As for `CCC(C)N(CCNC(=O)c1cc(C)nn1-c1ccccc1)C1CCCCC1` (stereo not given), the RP-LC retention time was determined as 684 s.

The molecule `Cc1ccc(N2C(=O)Cn3cccc3C2C(=O)NC2CCCCC2C)cc1` (stereo not given) had an RP-LC retention time of 947 s.

The molecule `Cc1ccc(-c2cn3cccnc3n2)cc1NC(=O)c1ccc(C(C)(C)C)cc1` showed an RP-LC retention time of 816 s.

`O=C(NC1CC1)c1ccc(CN2CCN(Cc3ccccc3)C(=O)C2=O)cc1`: the RP-LC retention time turned out to be 1240 s.

As to `CC1(C)COc2ccc(NC(=O)c3cccc(Br)c3)cc2NC1=O`, the RP-LC retention time was 892 s.

Take `Cc1ccccc1Cn1ccnc1C(=O)N1CCNC(=O)C1`: the RP-LC retention time is 616 s.

The molecule `CCc1ccc2c(c1)cc(S(=O)(=O)c1ccccc1)c(=O)n2CC(=O)N1CCCCC1` registered an RP-LC retention time of 620 s.

The molecule `CCOC(=O)c1ccc(NC(=O)CC2COc3ccccc3NC2=O)cc1` (stereo not given) yielded an RP-LC retention time of 596 s.

With `CCCn1ccc2sc(C)c(C(=O)NCc3cc(C)ccc3C)c2c1=O`, the RP-LC retention time stood at 1020 s.

`Cc1cccc(NC(=O)C2CCCN(S(=O)(=O)c3cn(C(C)C)cn3)C2)c1C` (stereo not given) had an RP-LC retention time of 878 s.

In turn, `COc1ccc(-n2c(C)nc3ccc(NC(=O)c4cccc([N+](=O)[O-])c4C)cc3c2=O)cc1` yielded an RP-LC retention time of 779 s.

As for `O=C1CCCc2cc(S(=O)(=O)N3CCC(C(=O)Nc4cccc(F)c4)CC3)ccc2N1`, the RP-LC retention time is 770 s.

As to `O=C(c1cccs1)N1CCC2(CC1)N=C(c1ccccc1)NO2`, the RP-LC retention time was determined as 747 s.

`CCCC(NC(=O)Cc1ccc(OC)c(Cl)c1)C(=O)Nc1nc2ccccc2[nH]1` (stereo not given): the RP-LC retention time was 720 s.

Take `CN1CCN(c2nc(C(=O)NC3CCCC3)cs2)CC1`: the RP-LC retention time worked out at 585 s.

As for `CCOC(=O)Cc1csc(NC(=O)Cc2csc(Nc3nc(C)cc(C)n3)n2)n1`, the RP-LC retention time is 769 s.

`O=C(NCc1cccc(Br)c1)C1CCCN(c2nccnc2Oc2ccccc2)C1` (stereo not given) came in with an RP-LC retention time of 1050 s.

`CC(C)CCN1C(=O)CN(S(=O)(=O)c2ccccc2)CC1(C)C(=O)NCc1ccc(F)cc1` (stereo not given) came in with an RP-LC retention time of 1030 s.

`Cc1ccc(CNC(=O)Nc2ccc3nncn3c2)cc1` returned an RP-LC retention time of 680 s.

Regarding `Cc1cc2ccccc2n2c(SCC(=O)NCc3ccco3)nnc12`, the RP-LC retention time was found to be 663 s.

For the molecule `CNC(=O)c1c(-c2ccc(F)cc2)oc2cc(N(CCO)S(C)(=O)=O)c(C3CC3)cc12`, the RP-LC retention time turned out to be 838 s.

`Cc1ccc(NC(=O)Cn2c(C)nc(C)c(C)c2=O)cc1C` showed an RP-LC retention time of 690 s.

For the molecule `O=C(NCc1ccc(Br)cc1)C1CCCN(c2ccnc(-c3ccc(F)cc3)n2)C1` (stereo not given), the RP-LC retention time worked out at 730 s.

Turning to `CCCN1C(=O)c2c(C(=O)NCc3cccc(C)c3)ncn2CC1(C)C(=O)NC1CCCC1` (stereo not given), the RP-LC retention time was determined as 851 s.

As to `C[C@H]1CN(C(=O)Nc2ccc3c(c2)CCC3)C[C@@H]1c1nc(-c2ccncc2)no1`, the RP-LC retention time came out at 888 s.

In the case of `COCC(C)Nc1ncnc2c1cnn2-c1cccc(Cl)c1` (stereo not given), the RP-LC retention time was 925 s.

For the molecule `Cc1cc(C(=O)NCC(O)c2cccc3ccccc23)c(C)o1` (stereo not given), the RP-LC retention time was determined as 801 s.

On to `Cc1ccc(S(=O)(=O)N2CCC(OCc3noc(C4CCCO4)n3)CC2)cc1F` (stereo not given), for which the RP-LC retention time came out at 936 s.

In the case of `Cc1ccc(C(=O)NC2CCN(c3ccccc3)C2=O)cc1F` (stereo not given), the RP-LC retention time turned out to be 823 s.
